Experimental data published in patent US12173089B2, “Inhibition of pulmonary fibrosis with nutlin-3A and peptides” (BOARD OF REGENTS, THE UNIVERSITY OF TEXAS SYSTEM, priority 2013, dated 2024).

What was measured:
[1] = tested on: fibroblasts isolated from the lungs of mice; assay: Western blotting and quantitative RT-PCR of fibroblasts isolated from lungs of treated BLM mice; format: in vivo; details: fibroblasts from BLM mice treated with nutlin-3a
Method: (§1) FIGS. 12A-12C. CSP-4 or nutlin-3a (NTL) inhibits proliferation of FL-fibroblasts. Mice were exposed to BLM for 14 d to induce significant lung fibrosis or to saline (fibrosis controls). 14 d later, mice exposed to BLM were treated with CSP-4 or CP, or nutlin-3a (see FIGS. 10A-10D/11A-11D). (FIG. 12A): Lung sections (d 21 after BLM injury) were subjected to immunohistochemistry (IHC) for Ki-67 to assess proliferation. One representative example is shown (n=9). Fibroblasts were isolated from the lungs of mice exposed to saline, BLM or BLM+nutlin-3a (as described in FIG. 11A) were tested for the changes in expression of col-I, p53 and downstream uPA and PAI-1 proteins by Western blotting (FIG. 12B):, and mRNA by quantitative RT-PCR (FIG. 12C).
(§2) Mice exposed to BLM 14 days earlier were treated with CSP-4 or its control (CP) or Nutlin-3a IV (as in Examples IX and X). Seven days later lung sections were obtained and subjected to IHC for Ki-67 to assess cell proliferation (see FIG. 12A). […] Fibroblasts isolated from the lungs of these animals (as described in Example X) were tested for the changes in expression of col-I, p53 and downstream uPA and PAI-1 proteins by Western blotting, and mRNA by quantitative RT-PCR (see FIGS. 12B-12C).

[2] = tested on: FL(IPF)-tissues; assay: Ex vivo treatment of FL-lung tissues from IPF patients; format: cell-based, human; details: for PAI-1 levels in fibroblasts isolated from IPF explants / Phosphorylation of Akt in fibroblasts from IPF explants / expression of PDGFR-β mRNA and protein in fibroblasts from IPF explants / miR-34a levels in fibroblasts isolated from IPF explants / p53 levels in fibroblasts isolated from IPF explants / uPA expression in fibroblasts isolated from IPF explants / uPAR expression in fibroblasts isolated from IPF explants / ECM synthetic rates of FL-lung explants: nutlin-3a 10 μM or CSP-4 10 nM, 3 to 7 days; for ECM synthetic rates of FL-lung explants: vs untreated, vehicle or CP; for production of ECM of fibroblasts from IPF explants / rate of proliferation of fibroblasts from IPF explants: vs FL-fibroblasts from untreated, vehicle- or CP-treated controls
Method: Freshly dissected FL-lung tissues from IPF patients are treated with nutlin-3a (10 μM) or CSP-4 (10 nM) for 3 to 7 days (see FIG. 13). Lung tissues are homogenized and tested for changes in ECM (hydroxyproline and desmosine). Controls include fibrotic lung (FL)-tissues from IPF patients treated with vehicle or control peptide, CP or naive lung tissues maintained in culture medium. Other controls include NL-tissues resected from histologically “normal” lungs. De-identified patient (“normal” and IPF) lungs that were not suitable for transplantation and donated for medical research are obtained through HAM (Edison, NJ) and the NDRI (Philadelphia, PA) and used for ex vivo studies. Fibroblasts are isolated from these tissues and analyzed for changes in p53, uPA, uPAR and PAI-1 expression, production of ECM and viability. Changes in rate of ECM synthesis are also measured. FL-tissue explants from patients with IPF have elevated synthesis of ECM when compared to expression levels in the slices of NL-tissues from control subjects. […] Phosphorylation of Akt and expression of PDGFR-β mRNA and protein also are reduced in fibroblasts from IPF explants treated with nutlin-3a or CSP-4.

[3] = tested on: FL-fibroblasts; assay: Proliferation of cultured FL-fibroblasts (cell count); format: cell-based, human; details: cells counted after 3 d
Method: FIGS. 8A-8C. Role of p53-fibrinolytic system cross-talk in nutlin-3a (NTL) or CSP-4-mediated inhibition of col-I expression in FL(IPF)-fibroblasts. (FIG. 8A) FL-fibroblasts were exposed to PBS, nutlin-3a (10 uM), CSP-4 (10 nM) or control peptide (CP) for 48 h. The cell lysates were immunoblotted for the expression of Col-I, PAI-1, p53, uPA and β-actin. (FIG. 8B) FL-fibroblasts cultured in 12 well plates in DMEM media were exposed to vehicle (PBS) or nutlin-3a, CSP-4 or CP. After 3 d, cells were detached and counted. (FIG. 8C) FL-fibroblasts were transduced with empty adenovirus vector alone (Ad-EV) or Ad-vector expressing p53 (Ad-p53), PAI-1 (Ad-PAI-1) or caveolin-1 (Ad-Cav-1). After 48 h, cell lysates were immunoblotted for Col-I, p53, PAI-1, uPA and β-actin.
FL-fibroblasts were exposed to PBS (control), nutlin-3a (10 μM), CSP-4 (10 nM) or CP for 48 hrs. Lysates were immunoblotted for the expression of Col-I, PAI-1, p53, and uPA. Cultured FL- were exposed to vehicle (PBS) or nutlin-3a, CSP-4 or CP and counted to assess proliferation. […] The process involves induction of p53 and PAI-1 expression, and concurrent inhibition of uPA.

[4] = tested on: BLM-treated mice; assay: Ki-67 immunohistochemistry of lung sections of BLM-treated mice; format: in vivo; details: IV treatment 14 d after BLM, sections seven days later
Method: as §1, §2

[5] = tested on: LPS-induced ALI; details: mice; cited from earlier work
[6] = tested on: LPS-stimulated neutrophils and macrophages; details: cited from earlier work
[7] = tested on: FL-fibroblasts; assay: Deletional analysis of CSP: peptide fragments tested on FL-fibroblasts for changes in p53, uPA, PAI-1 and col-I; format: cell-based, human
Method: FIGS. 6A-6D. CSP (CSP4) augments p53 expression via induction of miR-34a in FL(IPF)-fibroblasts. (FIG. 6A) NL- and FL-fibroblasts (n=3) were treated with PBS, CSP-4 (CSP) or control peptide (CP). RNA was analyzed for miR-34a by real-time PCR. (FIG. 6B) FL-fibroblasts were treated with PBS or CSP or CP with or without miR-34a antisense (miR-34a-AS) or pre-miR-34a or control miRNA (Ctr-miR). Conditioned media (CM) were immunoblotted for PAI-1 and lysates (CL) for p53 and β-actin. (FIG. 6C) FL-fibroblasts were treated with PBS or CSP or CP in the presence or absence of miR-34a-AS, pre-miR-34a or Ctr-miR. RNA was analyzed for changes in miR-34a by real-time PCR. (FIG. 6D) A series of overlapping deletions were made in CSP and these peptides were used to treat FL-fibroblasts with. The peptide sequences were CSP (SEQ ID NO:2), CSP-2: DGIWKAS (SEQ ID NO:12), CSP-3: KYWFYR (SEQ ID NO:13), CSP-4 (SEQ ID NO:1), and CP (SEQ ID NO:5). Changes in p53, uPA, PAI-1 and col-I were later assessed to identify the minimum amino acids required for the CSP effects.
A series of overlapping deletions were made in CSP and these peptide fragments were tested on FL-fibroblasts for changes in p53, uPA, PAI-1 and col-I (FIG. 6D).

[8] = tested on: ATII cell; details: BLM- or cigarette smoke-induced; cited from earlier work

## COc1ccc(C2=NC(c3ccc(Cl)cc3)C(c3ccc(Cl)cc3)N2C(=O)N2CCNC(=O)C2)c(OC(C)C)c1 (stereo not shown) [nutlin-3a, 4-2-4,5-dihydro-1H-imidazole-1-piperazin-2-one]
[1]
  PAI-1 protein and mRNA expression: marked induction
  col-I protein and mRNA expression: significant suppressed
  p53 protein: marked induction
  uPA protein and mRNA expression: significant suppressed
[2]
  PAI-1 levels in fibroblasts isolated from IPF explants: elevated levels
  Phosphorylation of Akt in fibroblasts from IPF explants: reduced
  expression of PDGFR-β mRNA and protein in fibroblasts from IPF explants: reduced
  miR-34a levels in fibroblasts isolated from IPF explants: elevated levels
  p53 levels in fibroblasts isolated from IPF explants: elevated levels
  uPA expression in fibroblasts isolated from IPF explants: reduced
  uPAR expression in fibroblasts isolated from IPF explants: reduced
  ECM synthetic rates of FL-lung explants: significantly reduced
  production of ECM of fibroblasts from IPF explants: significantly lower
  rate of proliferation of fibroblasts from IPF explants: significantly lower
[3]
  proliferation of FL-fibroblasts: inhibited
[4]
  staining for ki-67 antigens in lung sections: significantly reduced
[5]
  severity of LPS-induced ALI: reduced
[6]
  NF-κB DNA-binding activity: attenuated
  production of proinflammatory cytokines: attenuated

## FTTFTVT [CSP-4]
[2]
  PAI-1 levels in fibroblasts isolated from IPF explants: elevated levels
  Phosphorylation of Akt in fibroblasts from IPF explants: reduced
  expression of PDGFR-β mRNA and protein in fibroblasts from IPF explants: reduced
  miR-34a levels in fibroblasts isolated from IPF explants: elevated levels
  p53 levels in fibroblasts isolated from IPF explants: elevated levels
  uPA expression in fibroblasts isolated from IPF explants: reduced
  uPAR expression in fibroblasts isolated from IPF explants: reduced
  ECM synthetic rates of FL-lung explants: significantly reduced
  production of ECM of fibroblasts from IPF explants: significantly lower
  rate of proliferation of fibroblasts from IPF explants: significantly lower
[3]
  proliferation of FL-fibroblasts: inhibited
[4]
  staining for ki-67 antigens in lung sections: significantly reduced
[7]
  activity in deletional analysis of the CSP 20mer (changes in p53, uPA, PAI-1 and col-I): had the activity of the full length peptide
[8]
  ATII cell apoptosis: inhibited
  ATII cell p53 expression: inhibited
